Laboratory results: ChEMBL document CHEMBL1201862, “PubChem BioAssay data set” (2004)
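Values below derive from 48-hour exposures of cells grown in 96-well plates, with endpoints linearly interpolated between the two concentrations bracketing the appropriate inhibition level. The concentration for 50% growth inhibition is given as GI50.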 The source made the active and inactive calls. Rule as the data show it: active = GI50 up to about 1.1 µM and inactive = higher.

What was measured:
Test in all cases: growth of human tumour cells (NCI), 48 h
[1] = tested on: SK-MEL-2
[2] = tested on: U-251
[3] = tested on: OVCAR-3
[4] = tested on: HL-60
[5] = tested on: SW-620
[6] = tested on: PC-3
[7] = tested on: SK-OV-3
[8] = tested on: HCT-15
[9] = tested on: SN12C
[10] = tested on: MDA-N
[11] = tested on: UO-31
[12] = tested on: HT-29
[13] = tested on: SNB-75
[14] = tested on: T47D
[15] = tested on: OVCAR-5
[16] = tested on: OVCAR-8
[17] = tested on: SK-MEL-5
[18] = tested on: MCF7
[19] = tested on: CAKI-1
[20] = tested on: 786-0

Structure (SMILES) | GI50 [1] | GI50 [2] | GI50 [3] | GI50 [4] | GI50 [5] | GI50 [6] | GI50 [7] | GI50 [8] [µM] | GI50 [9] | GI50 [10] | GI50 [11] | GI50 [12] | GI50 [13] | GI50 [14] | GI50 [15] | GI50 [16] | GI50 [17] | GI50 [18] | GI50 [19] | GI50 [20]
Cc1cc(Cc2c(C)c(C)c(Cc3cc(C)cc(C(C)(C)C)c3O)c(C)c2C)c(O)c(C(C)(C)C)c1 | > 100 µM (inactive) | > 100 µM (inactive) | > 100 µM (inactive) | 14.4 µM (inactive) | > 100 µM (inactive) | > 100 µM (inactive) | > 100 µM (inactive) | > 100 | > 100 µM (inactive) | > 100 µM (inactive) | > 100 µM (inactive) | > 100 µM (inactive) | > 100 µM (inactive) | > 100 µM (inactive) | > 100 µM (inactive) | > 100 µM (inactive) | > 100 µM (inactive) | > 100 µM (inactive) | > 100 µM (inactive) | > 100 µM (inactive)
COC(=O)c1c(C)[nH]c2c1cc(O)c1nc(C)c(C)nc12 | 33 µM (inactive) | 60.3 µM (inactive) | > 100 µM (inactive) | 5.77 µM (inactive) | > 100 µM (inactive) | 23.2 µM (inactive) | 70 µM (inactive) | > 100 | > 100 µM (inactive) | > 100 µM (inactive) | > 100 µM (inactive) | > 100 µM (inactive) | 19.5 µM (inactive) | 47.3 µM (inactive) | 76.7 µM (inactive) | > 100 µM (inactive) | 48.5 µM (inactive) | 50.9 µM (inactive) | > 100 µM (inactive) | > 100 µM (inactive)
CN(Cc1cnc2nc(N)nc(N)c2n1)c1ccc(C(=O)NC(CCC(=O)NCCC(P(=O)(O)O)P(=O)(O)O)C(=O)O)cc1 (stereo not given) | > 49.5 µM (inactive) | 25.9 µM (inactive) | 37.2 µM (inactive) | 4.12 µM (inactive) | > 23.3 µM (inactive) | 1.79 µM (inactive) | 1.13 µM (inactive) | 6.67 | 11 µM (inactive) | 8.55 µM (inactive) | 22 µM (inactive) | 6 µM (inactive) | > 100 µM (inactive) | > 67.9 µM (inactive) | 25.1 µM (inactive) | 7.29 µM (inactive) | 43.4 µM (inactive) | 5 µM (inactive) | > 25 µM (inactive) | 6.11 µM (inactive)
CCSc1c2cc(OC)ccc2nc2ccc(OC)cc12 | 18.8 µM (inactive) | 12.5 µM (inactive) | 16.9 µM (inactive) | 2.62 µM (inactive) | 17.7 µM (inactive) | 10.7 µM (inactive) | 23.3 µM (inactive) | 8.34 | 14.3 µM (inactive) | 5.24 µM (inactive) | 12.6 µM (inactive) | 17.8 µM (inactive) | 6.73 µM (inactive) | 8.87 µM (inactive) | 8.09 µM (inactive) | 16.4 µM (inactive) | 6.65 µM (inactive) | 4.99 µM (inactive) | 9.27 µM (inactive) | 16 µM (inactive)
